The values that follow come from patent publication US7351693B2, “Peptides and nucleic acids of the cathelicidin family, derived from fish, and uses thereof” (priority 2002, dated 2008).

Numbered stars: 1 amine (or outer) side, 2 acyl side, 3 side chain; on linkers, the order of the positions; unused ones are H or OH. Bridge positions count the residues as written; N and C are the ends. Square brackets hold non-standard residues; d marks the D form. Peptide text beside a SMILES is read from it. I, II: the chains in the order shown. Actinocin(9to1) = Cc1c2oc3c(C)ccc(C(=O)[*:1])c3nc-2c(C(=O)[*:2])c(N)c1=O; NMeV = CN[C@H](C(=O)O)C(C)C; Sar = CNCC(=O)O

The subject of this experiment is trout bactenecin gene. Description: RT-PCR analysis of trout bactenecin (cathelicidin) expression in stimulated head kidney leucocytes. The format is cell-based, rainbow trout. To be noted: for effect on LPS-stimulated expression of trout bactenecin: added 3 h after LPS stimulation (5 μg/ml), FIG. 14. Here is the method: Rainbow trout head kidney leucocytes were obtained by disrupting the head kidney tissue through a 100 μm nylon mesh. After washing, the leucocytes were suspended in L15 medium (Gibco) and stimulated as follows: • (A) LPS time course: Cells were stimulated with 5 μg/ml of E. coli 0127:B8 lipopolysaccharide (LPS, Sigma) for different time periods (0, 0.5 h, 1 h, 2 h, 3 h, 4 h). • (B) Transcription/translation inhibition: Streptomyces actinomycin D (Sigma) at 100 ng/ml was added to the cells after 3 h of LPS induction (5 μg/ml) to inhibit transcription. Alternatively cycloheximide at 10 μg/ml was added to the cells after 3 h of LPS stimulation (as above) to inhibit translation. • (C) Different inducers: 5 μg/ml of Phytohemagglutinin (PHA, Sigma), 25 ng/ml of Phorbol Myristate Acetate (PMA, Sigma) alone, or in combination with 5×10^−7M of Calcium Ionophore (Sigma) were added to the cells for 4 h.
At the end of the relevant time period, total RNA was isolated from approximately 2×10^7 cells, with RNAzol B (Biogenesis) according to the manufacturer's instructions. The RNA was then reverse transcribed to cDNA and the product used as template in PCRs for the trout cathelicidin gene and β-actin as a positive control. The primers used for the amplification of the cathelicidin gene were fF1 (5′-[…]-3′ SEQ ID NO: 80) and R1 (5′-[…]-3′ SEQ ID NO: 81), and for the β-actin were forward (5′-ATGGAAGATGAAATCGCC-3′ SEQ ID NO: 82) and reverse (5′-TGCCAGATCTTCTCCATG-3′ SEQ ID NO: 83). The PCR reaction mix was as follows: 5 μl of phage mix, 1.5 μl 10 mM dNTPs mix, 0.125 μl of 5 units/μl Taq DNA Polymerase, 2.5 μl 10×NH4 buffer, 0.75 μl 50 mM MgCl2, 1.5 μl forward primer, 1.5 μl reverse primer and 12.125 μl of dH2O. The cycling protocol was as follows: initial melting at 94° C. for 4 min, followed by 30 cycles of 94° C. for 45 sec, 60° C. for 45 sec, 72° C. for 1 min, with a final elongation at 72° C. for 10 min. The expected size of the products was 320 bp for the cathelicidin gene and 260 bp for β-actin.

Regarding `C[C@@H]1C[C@@H]([C@H](O)CC2CC(=O)NC(=O)C2)C(=O)[C@@H](C)C1` [Cycloheximide, cycloheximide], the “effect on LPS-stimulated expression of trout bactenecin” value is “did not induce a superinduction”.
Same read-out and setting: under `Cc1c2oc3c(C)ccc(C(=O)N[C@@H]4C(=O)N[C@H](C(C)C)C(=O)N5CCC[C@H]5C(=O)N(C)CC(=O)N(C)[C@@H](C(C)C)C(=O)O[C@@H]4C)c3nc-2c(C(=O)N[C@@H]2C(=O)N[C@H](C(C)C)C(=O)N3CCC[C@H]3C(=O)N(C)CC(=O)N(C)[C@@H](C(C)C)C(=O)O[C@@H]2C)c(N)c1=O` [actinomycin D] (I: T[dV]P[Sar][NMeV] / II: T[dV]P[Sar][NMeV]; ester I:1-I:C, II:1-II:C; linker I:N-II:N via Actinocin(9to1)) stands “inhibited completely”.
On to `CCCCCCCCCCCCCC(=O)O[C@@H]1[C@@H](C)[C@@]2(O)[C@@H](C=C(CO)C[C@]3(O)C(=O)C(C)=C[C@@H]23)[C@@H]2C(C)(C)[C@]12OC(C)=O` [PMA, Phorbol Myristate Acetate], for which the “induction of trout bactenecin expression in leucocytes” value (after 4 h of induction, FIG. 13) was “only PMA+calcium ionophore induced expression”.
